Data from patent US20250228842A1, “USES OF A SOMATOSTATIN MODULATOR FOR THE TREATMENT OF CARCINOID SYNDROME” (Crinetics Pharmaceuticals, Inc., priority 2022, published 2025).

How the values were obtained:
carcinoid syndrome = conditions: cited from earlier work
[1] = system: insulin-like growth factor-1 (IGF-1) level; assay: Phase 2 acromegaly trials (ACROBAT Edge / Evolve): IGF-1 level; assay type: in vivo, human
Procedure: (§1) An open label exploratory study designed to evaluate the safety, efficacy, and pharmacokinetics of Compound A (also known as paltusotine) in subjects with acromegaly that are treated with somatostatin analogue (SSA) based treatment regimens.
10 mg HMG capsule formulation. Multiple capsules were swallowed with water depending on dose specified for a given period/cohort.
Primary Outcome Measures: Change from baseline (mean of Screening values) in insulin-like growth factor-1 (IGF-1) level [Time Frame: 13 Weeks].
Primary Outcome Measures: Proportion of subjects who meet responder criteria (based on the mean of two consecutive insulin-like growth factor-1 [IGF-1] measurements ≤upper limit of normal [ULN]) (Time Frame: 13 Weeks).
(§2) Secondary Outcome Measures: 1) Change in IGF-1 levels [Time Frame: From Week 10 to Week 13]. 2) Change in growth hormone (GH) levels [Time Frame: From Week 8 to Week 13]. 3) Change in patient assessed symptoms of acromegaly [Time Frame: From Week 10 to Week 13]. Total score computed by adding each of the individual acromegaly symptom intensities (headache pain, joint pain, sweating, fatigue, weakness in legs, swelling, numbness or tingling).
(§3) The primary hypothesis was that the group would show no change in the median IGF-1 at Week 13 versus baseline.

[2] = Tolerability in studies on subjects with acromegaly; assay type: in vivo, human; conditions: 40 mg
[3] = system: growth hormone (GH) levels; assay: Phase 2 acromegaly trials (ACROBAT Edge / Evolve): GH level; assay type: in vivo, human
Procedure: as §1, §2, §3

[4] = Phase 1 multi-cohort single dose study, plasma pharmacokinetics in healthy subjects; assay type: in vivo, human
Procedure: Cohort 1: To characterize performance of 10 mg tablets prepared by spray-dried dispersion (SDD) of Compound A-HCl salt.
Cohort 2: To evaluate the relative bioavailability of 10 mg SDD tablets compared to the Compound A-HCl hot melt granulation (HMG) formulation, 10 mg capsules. To determine the effect of timing of food administration on pharmacokinetics of low dose of the 10 mg SDD tablets.
Cohort 5: To determine the effect of the proton-pump inhibitor (PPI), lansoprazole, on the pharmacokinetics of a 60 mg dose of SDD tablets. To determine the effect of a low-fat meal on the pharmacokinetics of a 60 mg dose of SDD tablets.
The SDD tablets were evaluated. Up to twelve (12) healthy male and female subjects were enrolled in each cohort. Cohort 1 consisted of 4 periods: In Period 1, subjects were administered a proton-pump inhibitor (lansoprazole, 15 mg BID for 3 days (from Day-3), taken orally at least 30 min prior to a meal, once in the morning and once in the evening). On the fourth day (Day 1 of study), fasted subjects will take the last dose of lansoprazole (15 mg) 60 min prior to 20 mg Compound A (2×10 mg of the SDD tablets). In Period 2, fasted subjects were administered 20 mg Compound A (2×10 mg of the SDD tablets). In Period 3, fasted subjects were administered 20 mg Compound A (2×10 mg of the SDD tablets) with a high-fat, high-calorie meal. In Period 4, fasted subjects will take up to 80 mg Compound A (up to 8×10 mg of the SDD tablets). The actual dose was selected based on the pharmacokinetic data from Period 2.
For Period 1: In the evening before dosing (Day −1), subjects were administered their evening dose of 15 mg lansoprazole, provided an evening meal at least 30 min after administration of lansoprazole, and then were required to fast overnight (≥10 hr) on Day −1. […]
The cohort consisted of three periods. The PK of 60 mg paltusotine administered as 3×20 mg SDD tablets was assessed using the following criteria: effect of a low-fat meal on the PK of paltusotine (Period 1 and Period 3) and effect of the PPI lansoprazole on the PK of paltusotine (Period 2) as follows: […]

[5] = after 13 weeks of treatment, acromegaly patients previously treated with injected SRL depots

C[C@@H](O)[C@@H]1NC(=O)[C@H](CCCCN)NC(=O)[C@@H](Cc2c[nH]c3ccccc23)NC(=O)[C@H](Cc2ccccc2)NC(=O)[C@@H](NC(=O)[C@H](N)Cc2ccccc2)CSSC[C@@H](C(=O)N[C@H](CO)[C@@H](C)O)NC1=O [octreotide]
patients with carcinoid syndrome who respond (carcinoid syndrome): 80%

Cl.N#Cc1cccc(-c2ccc3ncc(-c4cc(F)cc(F)c4)c(N4CCC(N)CC4)c3c2)c1O [Compound A-HCl, 3-[4-(4-amino-piperidin-1-yl)-3-(3,5-difluoro-phenyl)-quinolin-6-yl]-2-hydroxy-benzonitrile monohydrochloride]
steady state IGF-1 change vs baseline (last LA-SRL injection) ([1]; 10 and 20 mg per day, acromegaly patients previously treated with LA-SRLs): above baseline
steady state IGF-1 change from baseline (last LA-SRL injection) ([1]; 30/day and 40 mg/day, acromegaly patients previously treated with LA-SRLs): near zero
tolerability [2]: well tolerated

N#Cc1cccc(-c2ccc3ncc(-c4cc(F)cc(F)c4)c(N4CCC(N)CC4)c3c2)c1O [Compound A, 3-(4-(4-amino-piperidin-1-yl)-3-(3,5-difluoro-phenyl)-quinolin-6-yl)-2-hydroxy-benzonitrile]
GH levels vs baseline [3, 5]: did not significantly change from baseline
GH after withdrawal ([3]; after withdrawal): Rise in GH after withdrawal
reduction of exposures (Cmax and AUC) ([4]; when administered with PPI, 60 mg): ~40%
reduction of exposures (Cmax and AUC) ([4]; when administered with high-fat meal): > 80%
reduction of exposures (Cmax and AUC) ([4]; when administered with low-fat meal, 60 mg): ~60%
IGF-1 levels vs baseline [1, 5]: did not significantly change from baseline
IGF-1 after withdrawal ([1]; within 2 weeks after withdrawal): Rise in IGF-1 after withdrawal
